Experimental data as given in patent US20230391871A1, “MONOAMINE OXIDASE BLOCKADE THERAPY FOR TREATING CANCER THROUGH REGULATING TUMOR ASSOCIATED MACROPHAGES (TAMS)” (THE REGENTS OF THE UNIVERSITY OF CALIFORNIA, priority 2020, published 2023).

Experiments:
[1] = system: Maoa WT and Maoa KO BMDMs; experiment: Maoa WT and Maoa KO BMDM IL-4/IL-13 polarization with H2O2 or tyramine supplement; assay type: cell-based, mouse
From the text: MAO-A breaks down monoamines and generates hydrogen peroxide (H2O2) as a byproduct, thereby increasing reactive oxygen species (ROS) levels in a TAM. b,c, Studying the in vivo ROS levels in TAMs isolated from Mao WT and Mao KO mice bearing B16-OVA tumours (n=4). (b) Experimental design. (c) FACS analyses of ROS levels in Maoa WT and Maoa KO TAMs at day 18. TAMs were gated as the CD45.2^+CD11b^+Ly6G^−Ly6C^−/lowF4/80^+ cells of total tumour-infiltrating immune cells (TIIs). d, FACS analyses of ROS levels in in vitro-cultured Maoa WT and Maoa KO BMDMs, […] IL-4/IL-13 polarization for 24 hours (n=4). NC, no cytokine-treated control BMDMs: IL-4/IL-13, IL-4/IL-13-polarized BMDMs. e-g, Studying the phenotype of IL-4/IL-13-polarized Maoa WT and Maoa KO BMDMs with or without H2O2 treatment (n=3). BMDMs were treated with H2O2 for 30 minutes prior to IL-4/IL-13 polarization for 24 hours. (e) FACS analyses of CD206 expression on BMDMs. (f,g) QPCR analyses of Chi313 (f) and Arg1 (g) mRNA expression in BMDMs. h-j, Studying the phenotype of IL-4/IL-13-polarized Maoa WT and Maoa KO BMDMs with or without tyramine supplement (n=3). BMDMs were treated with tyramine for 30 minutes prior to IL-4/IL-13 polarization for 24 hours. (h) FACS analyses of ROS levels in BMDMs. (i,j) QPCR analyses of Chi3/3 (i) and Arg1 (j) mRNA expression in BMDMs. k,l, Studying the in vivo Stat6 signaling in TAMs isolated from Mao WT and Mao KO mice bearing B16-OVA tumours (combined from 5 mice per group). (k) Experimental design. (l) Western blot analyses of Stat6 phosphorylation in TAMs at day 18. TAMs were FACS sorted as the DAPI^−CD45.2^+CD11b^+Ly6G^−Ly6C^−/lowF4/80^+ cells from total TIIs. m, Western blot analyses of JAK-Stat6 signaling in in vitro-cultured Maoa WT and Maoa KO BMDMs, with or without IL-4/IL-13 polarization and H2O2 treatment. BMDMs were treated with H2O2 for 30 minutes prior to IL-4/IL-13 stimulation for another 30 minutes. Representative of 3 experiments. All data are presented as the mean±SEM. ns, not significant, *P<0.05, **P<0.01, and ***P<0.001, by 2-way ANOVA (d-j) or by Student's t test (c).
[…] BMDMs (denoted as WT and KO, respectively) were treated with H2O2 for 30 minutes followed by IL-4/IL-13 stimulation for another 30 minutes. BMDMs were then collected for FACS analysis. N=4. a, FACS plots showing ROS levels in the indicated BMDMs. b, Quantification of A. Representative of 2 experiments. All data are presented as the mean±SEM. ns, not significant, ***P<0.001, by 2-way ANOVA (b).
(§1) To generate BMDMs, BM cells were collected from femurs and tibias of Maoa WT mice and Maoa KO mice, and were cultured in C10 medium containing with 20% of L929-conditional medium in a 10-cm dish (2×10^6 cells per ml: 12 ml per dish) for 6 days. At day 6, the resulting BMDMs were collected and reseeded in a 6-well plate (1×10^6 cells per ml: 2 ml per well) in C10 medium for 24 hours, in the presence or absence of recombinant murine IL-4 (10 ng/ml) (Peprotech, 200-04) and IL-13 (10 ng/ml) (Peprotech, 200-13) to induce BMDM immunosuppressive polarization.
In some experiments, H2O2 (100 μM) were added to the Maoa WT and Maoa KO BMDM polarization culture 30 minutes prior to adding recombinant murine IL-4 and IL-13. At 30 minutes after IL-4/IL-13 stimulation, BMDMs were collected for WB analysis: at 24 hours after IL-4/IL-13 stimulation, BMDMs were collected for flow cytometry and QPCR analysis.
In some experiments, tyramine (100 μM) (Sigma-Aldrich, T90344) were added to the Maoa WT and Maoa KO BMDM polarization culture 30 minutes prior to adding recombinant murine IL-4 and IL-13. At 24 hours after IL-4/IL-13 stimulation, BMDMs were collected for flow cytometry and QPCR analysis.

[2] = system: wildtype BMDMs (bone marrow-derived macrophages); experiment: In vitro WT BMDM IL-4/IL-13-induced polarization culture with MAOI treatment; assay type: cell-based, mouse; conditions: IL-4/IL-13-stimulated WT BMDMs, 24 h
Protocol: (a) Experimental design. Wildtype BMDMs were stimulated with IL-4/IL-13 with or without MAOI treatment. MAOIs (monoamine oxidase inhibitors) studied were phenelzine (Phe: 20 μM), clorgyline (Clo: 20 μM), moclobemide (Moc: 200 μM), and pirlindole (Pir: 20 μM). NT, no MAOI treatment. (b) FACS analyses of ROS levels in BMDMs. (c) FACS analyses of CD206 expression on BMDMs. (d,e) QPCR analyses of Chi313 (d) and Arg1 (e) mRNA expression in BMDMs. f-j, Studying the TAM-related cancer immunotherapy potential of MAOI treatment in a B16-OVA melanoma syngeneic mouse tumour model (n=7-8). (f) Experimental design. B6 wildtype mice were treated with clodronate liposomes (Clod) to serve as TAM-depleted experimental mice, or treated with vehicle liposomes (Veh) to serve as TAM-intact control mice. Phe, phenelzine treatment: NT, no phenelzine treatment. (g) Tumour growth. (h) Tumour volume at day 18. (i) FACS analyses of CD206 expression on TAMs of TAM-intact experimental mice. (j) FACS analyses of intracellular Granzyme B production in tumour-infiltrating CD8^+ T cells of all experimental mice. k-o, Studying the cancer therapy potential of MAOI treatment in combination with anti-PD-1 treatment in the B16-OVA melanoma and MC38 colon cancer syngeneic mouse tumour models (n=5). (k) Experimental design. Tumour-bearing mice were treated with anti-PD-1 antibody (aPD-1) or isotype control (Iso), together with or without phenelzine (Phe) treatment. NT, no Phe treatment. (l) B16-OVA tumour growth. (m) B16-OVA tumour volume at day 18. (n) MC38 tumour growth. (o) MC38 tumour volume at day 27. Representative of 3 experiments. All data are presented as the mean±SEM. ns, not significant, *P<0.05, **P<0.01, and ***P<0.001, by I-way ANOVA (b-e, h, j, m, o) or by Student's t test (i).
as §1
In some experiments, MAOIs were added to the Maoa WT BMDM polarization culture 30 minutes prior to adding recombinant murine IL-4 and IL-13, to block MAO-A activity during BMDM polarization. MAOIs studied were phenelzine (Phe, 20 μM) (Sigma-Aldrich), clorgyline (Clo, 20 μM) (Sigma-Aldrich), moclobemide (Moc, 200 μM) (Sigma-Aldrich), and pirlindole (Pir, 20 μM) (R&D Systems). At 24 hours after IL-4/IL-13 stimulation, BMDMs were collected for analysis.
Cells were stained with surface marker antibodies, washed with PBS, then resuspended in pre-warmed PBS (1×10^6 cells/ml/tube) containing 1 μM CM-H2DCFDA (Thermo Fisher Scientific, C6827). After 15 minutes incubation at room temperature, cells were immediately washed with cold PBS followed by flow cytometry analysis. ROS levels were measured by oxidation of the CM-H2DCFDA probes that can be read out as the fluorescence intensity at the FITC/488 channel of a flow cytometer. Single cell RNA sequencing (scRNAseq) scRNASeq was used to analyze the gene expression profiles of TIIs. B16-OVA tumours were harvested from Maoa WT and Maoa KO mice to prepare TII suspensions (10 tumours were combined for each group). TII suspensions were then sorted using a FACSAria II flow cytometer to purify immune cells (gated as DAPI-CD45.2^+ cells). Sorted TIIs were immediately delivered to the Technology Center for Genomics & Bioinformatics (TCGB) facility at UCLA for library construction and sequencing.

[3] = IL-4/IL-13-stimulated Maoa WT and KO BMDMs, H2O2 100 μM, 24 h
[4] = MAOI 20 μM added 30 min before cytokines
[5] = Maoa KO BMDMs, tyramine 100 μM, 30 min before IL-4/IL-13, 24 h
[6] = Maoa WT BMDMs, tyramine 100 μM, 30 min before IL-4/IL-13, 24 h

OO [H2O2, hydrogen peroxide]
JAK-Stat6 signaling (JAK1, JAK2, JAK3, Stat6 phosphorylation, Western blot) ([1]; IL-4/IL-13-stimulated Maoa WT and KO BMDMs, H2O2 100 μM, 30 min stimulation, to similar levels): increased | Maoa WT vs KO difference in Arg1 expression [1, 3]: eliminated their differences | Maoa WT vs KO difference in CD206 expression [1, 3]: eliminated their differences | Maoa WT vs KO difference in Chi313 expression [1, 3]: eliminated their differences | intracellular ROS in BMDMs ([1]; IL-4/IL-13-stimulated Maoa WT and KO BMDMs, H2O2 100 μM, to similar levels): elevated

C#CCN(C)CCCOc1ccc(Cl)cc1Cl [clorgyline]
ROS levels in BMDMs (FACS) [2, 4]: efficiently reduced | Arg1 mRNA expression in BMDMs (QPCR) ([2]; MAOI 20 μM): decreased expression | CD206 expression on BMDMs (FACS) ([2]; MAOI 20 μM): decreased expression | Chi313 mRNA expression in BMDMs (QPCR) ([2]; MAOI 20 μM): decreased expression | immunosuppressive polarization of BMDMs ([2]; MAOI 20 μM): suppressed

O=C(NCCN1CCOCC1)c1ccc(Cl)cc1 [mocolobemide, moclobemide]
ROS levels in BMDMs (FACS) ([2]; MAOI 200 μM added 30 min before cytokines): efficiently reduced | Arg1 mRNA expression in BMDMs (QPCR) ([2]; MAOI 200 μM): decreased expression | CD206 expression on BMDMs (FACS) ([2]; MAOI 200 μM): decreased expression | Chi313 mRNA expression in BMDMs (QPCR) ([2]; MAOI 200 μM): decreased expression | immunosuppressive polarization of BMDMs ([2]; MAOI 200 μM): suppressed

Cc1ccc2c(c1)c1c3n2CCNC3CCC1 (centres unmarked) [pirlindole]
ROS levels in BMDMs (FACS) [2, 4]: efficiently reduced | Arg1 mRNA expression in BMDMs (QPCR) ([2]; MAOI 20 μM): decreased expression | CD206 expression on BMDMs (FACS) ([2]; MAOI 20 μM): decreased expression | Chi313 mRNA expression in BMDMs (QPCR) ([2]; MAOI 20 μM): decreased expression | immunosuppressive polarization of BMDMs ([2]; MAOI 20 μM): suppressed

NCCc1ccc(O)cc1 [tyramine]
increase of ROS levels in BMDMs [1, 5]: not | upregulation of Arg1 mRNA expression in BMDMs [1, 5]: not | upregulation of Chi313 mRNA expression in BMDMs [1, 5]: not | Arg1 mRNA expression in BMDMs [1, 6]: upregulated | Chi313 mRNA expression in BMDMs [1, 6]: upregulated | ROS levels in BMDMs [1, 6]: increased
